Molecular target: Human TRPA1 (Homo sapiens, UniProt O75762)
Experiment: Alternative TRPA1 Ca2+ fluorometry assay (hTRPA1/TREx-HEK293 cells, Fluo-4, FDSS 6000)
Type: cell-based
Design: expressed in transfected cells
Details: Fluo-4-AM, agonist 6,11-dihydro-5H-dibenzo[b,e]azepine-10-carboxylic acid methyl ester 25 nM, procedure used for Examples 184, 190 to 192, 194 to 316
In short: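 Tetracycline-induced (50 ng/ml, 24 h) hTRPA1/TREx-HEK293 cells were loaded with Fluo-4-AM and probenecid. Compound (1% DMSO final) was added after a 12 s baseline and the Ca2+ signal followed for 14 min, then 25 nM TRPA1 agonist dibenzazepine carboxylic acid methyl ester was applied. Signal is Em540 (ex 488 nm) relative to the first baseline reading.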

Chain of Human TRPA1 (O75762 whole entry): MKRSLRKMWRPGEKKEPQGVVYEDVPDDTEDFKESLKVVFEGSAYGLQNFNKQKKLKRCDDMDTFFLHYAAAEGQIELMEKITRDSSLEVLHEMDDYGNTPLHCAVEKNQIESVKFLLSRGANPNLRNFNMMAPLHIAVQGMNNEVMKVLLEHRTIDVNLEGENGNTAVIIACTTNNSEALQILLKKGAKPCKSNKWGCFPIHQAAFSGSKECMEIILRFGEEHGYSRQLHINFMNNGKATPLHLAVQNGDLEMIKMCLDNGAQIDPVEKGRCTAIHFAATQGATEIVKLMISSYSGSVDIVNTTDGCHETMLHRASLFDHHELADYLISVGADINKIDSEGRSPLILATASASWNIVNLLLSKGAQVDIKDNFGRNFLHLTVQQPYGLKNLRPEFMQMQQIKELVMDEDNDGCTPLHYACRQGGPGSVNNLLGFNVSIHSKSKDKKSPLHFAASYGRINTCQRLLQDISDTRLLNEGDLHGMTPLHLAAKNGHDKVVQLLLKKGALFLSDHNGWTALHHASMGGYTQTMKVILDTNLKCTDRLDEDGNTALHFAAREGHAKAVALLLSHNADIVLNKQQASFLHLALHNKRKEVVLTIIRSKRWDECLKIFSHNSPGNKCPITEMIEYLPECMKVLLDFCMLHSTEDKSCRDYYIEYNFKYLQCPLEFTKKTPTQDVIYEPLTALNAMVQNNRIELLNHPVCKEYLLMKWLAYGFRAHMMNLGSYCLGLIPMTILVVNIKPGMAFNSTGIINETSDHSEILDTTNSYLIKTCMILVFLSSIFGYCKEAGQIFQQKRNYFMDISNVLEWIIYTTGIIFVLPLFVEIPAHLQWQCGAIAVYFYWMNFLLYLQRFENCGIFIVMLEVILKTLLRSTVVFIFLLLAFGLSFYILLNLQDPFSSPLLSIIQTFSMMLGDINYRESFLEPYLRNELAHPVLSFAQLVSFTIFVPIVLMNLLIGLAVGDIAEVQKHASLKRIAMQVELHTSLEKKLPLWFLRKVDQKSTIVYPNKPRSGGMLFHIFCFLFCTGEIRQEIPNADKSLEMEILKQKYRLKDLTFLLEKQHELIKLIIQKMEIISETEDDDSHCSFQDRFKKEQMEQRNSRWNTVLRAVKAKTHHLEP

IC50 [µM]	Structure (SMILES)
~0.436	O=C(NCc1cc(-c2ccc(C(F)(F)F)cc2)nc(N2CCN(c3ccccc3F)CC2)n1)[C@@H]1CCCN1S(=O)(=O)c1ccccc1 [Example 272, 1-Benzenesulfonyl-pyrrolidine-2S-carboxylic acid [2-[4-(2-fluoro-phenyl)-piperazin-1-yl]-6-(4-trifluoromethyl-phenyl)-pyrimidin-4-ylmethyl]-amide]
> 10	O=C(NCc1cc(-c2ccc(C(F)(F)F)cc2)nc(N2CCN(c3ccccc3F)CC2)n1)[C@@H]1CCCN1S(=O)(=O)c1cccc(Cl)c1F [Example 273, 1-(3-Chloro-2-fluoro-benzenesulfonyl)-pyrrolidine-2S-carboxylic acid [2-[4-(2-fluoro-phenyl)-piperazin-1-yl]-6-(4-trifluoromethyl-phenyl)-pyrimidin-4-ylmethyl]-amide]
> 10	CC(=O)c1ccc(S(=O)(=O)N2CCC[C@H]2C(=O)NCc2cc(-c3ccc(C(F)(F)F)cc3)nc(N3CCN(c4ccccc4F)CC3)n2)cc1 [Example 274, 1-(4-Acetyl-benzenesulfonyl)-pyrrolidine-2S-carboxylic acid [2-[4-(2-fluoro-phenyl)-piperazin-1-yl]-6-(4-trifluoromethyl-phenyl)-pyrimidin-4-ylmethyl]-amide]
> 10	Cc1cc(C)c(S(=O)(=O)N2CCC[C@H]2C(=O)NCc2cc(-c3ccc(C(F)(F)F)cc3)nc(N3CCN(c4ccccc4F)CC3)n2)c(C)c1 [Example 275, 1-(2,4,6-Trimethyl-benzenesulfonyl)-pyrrolidine-2-carboxylic acid [2-[4-(2-fluoro-phenyl)-piperazin-1-yl]-6-(4-trifluoromethyl-phenyl)-pyrimidin-4-ylmethyl]-amide]
6.17	O=C(NCc1cc(-c2ccc(C(F)(F)F)cc2)nc(N2CCN(c3ccccc3F)CC2)n1)[C@@H]1CCCN1S(=O)(=O)c1ccccc1F [Example 276, 1-(2-Fluoro-benzenesulfonyl)-pyrrolidine-2S-carboxylic acid [2-[4-(2-fluoro-phenyl)-piperazin-1-yl]-6-(4-trifluoromethyl-phenyl)-pyrimidin-4-ylmethyl]-amide]
> 10	Cc1cccc(Cl)c1S(=O)(=O)N1CCC[C@H]1C(=O)NCc1cc(-c2ccc(C(F)(F)F)cc2)nc(N2CCN(c3ccccc3F)CC2)n1 [Example 277, 1-(2-Chloro-6-methyl-benzenesulfonyl)-pyrrolidine-2S-carboxylic acid [2-[4-(2-fluoro-phenyl)-piperazin-1-yl]-6-(4-trifluoromethyl-phenyl)-pyrimidin-4-ylmethyl]-amide]
> 10	O=C(NCc1cc(-c2ccc(C(F)(F)F)cc2)nc(N2CCN(c3ccccc3F)CC2)n1)[C@@H]1CCCN1S(=O)(=O)c1ccc(Cl)cc1F [Example 278, 1-(4-Chloro-2-fluoro-benzenesulfonyl)-pyrrolidine-2S-carboxylic acid [2-[4-(2-fluoro-phenyl)-piperazin-1-yl]-6-(4-trifluoromethyl-phenyl)-pyrimidin-4-ylmethyl]-amide]
> 10	Cc1ccccc1S(=O)(=O)N1CCC[C@H]1C(=O)NCc1cc(-c2ccc(C(F)(F)F)cc2)nc(N2CCN(c3ccccc3F)CC2)n1 [Example 279, 1-(Toluene-2-sulfonyl)-pyrrolidine-2S-carboxylic acid [2-[4-(2-fluoro-phenyl)-piperazin-1-yl]-6-(4-trifluoromethyl-phenyl)-pyrimidin-4-ylmethyl]-amide]
> 10	Cc1ccc(S(=O)(=O)N2CCC[C@H]2C(=O)NCc2cc(-c3ccc(C(F)(F)F)cc3)nc(N3CCN(c4ccccc4F)CC3)n2)cc1Cl [Example 280, 1-(3-Chloro-4-methyl-benzenesulfonyl)-pyrrolidine-2S-carboxylic acid [2-[4-(2-fluoro-phenyl)-piperazin-1-yl]-6-(4-trifluoromethyl-phenyl)-pyrimidin-4-ylmethyl]-amide]
5.49	O=C(NCc1cc(-c2ccc(C(F)(F)F)cc2)nc(N2CCN(c3ccccc3F)CC2)n1)[C@@H]1CCCN1S(=O)(=O)c1cc(F)cc(F)c1 [Example 281, 1-(3,5-Difluoro-benzenesulfonyl)-pyrrolidine-2S-carboxylic acid [2-[4-(2-fluoro-phenyl)-piperazin-1-yl]-6-(4-trifluoromethyl-phenyl)-pyrimidin-4-ylmethyl]-amide]
> 10	CC(C)(C)c1ccc(S(=O)(=O)N2CCC[C@H]2C(=O)NCc2cc(-c3ccc(C(F)(F)F)cc3)nc(N3CCN(c4ccccc4F)CC3)n2)cc1 [Example 282, 1-(4-tert-Butyl-benzenesulfonyl)-pyrrolidine-2S-carboxylic acid [2-[4-(2-fluoro-phenyl)-piperazin-1-yl]-6-(4-trifluoromethyl-phenyl)-pyrimidin-4-ylmethyl]-amide]
~0.724	O=C(NCc1cccc(-c2ccc(C(F)(F)F)cc2)n1)[C@@H]1CCCN1S(=O)(=O)c1ccc(F)cc1 [Example 283, 1-(4-Fluoro-benzenesulfonyl)-pyrrolidine-2S-carboxylic acid [6-(4-trifluoromethyl-phenyl)-pyridin-2-ylmethyl]-amide]
~1.07	O=C(NCc1cccc(-c2ccc(C(F)(F)F)cc2)n1)[C@@H]1CCCN1S(=O)(=O)c1ccc(Cl)s1 [Example 284, 1-(5-Chloro-thiophene-2-sulfonyl)-pyrrolidine-2S-carboxylic acid [6-(4-trifluoromethyl-phenyl)-pyridin-2-ylmethyl]-amide]
0.022	O=C(NCc1cc(-c2ccc(C(F)(F)F)cc2)nc(-c2ccc(C(F)(F)F)cc2)n1)[C@@H]1CCCN1S(=O)(=O)c1ccc(F)cc1 [Example 285, 1-(4-Fluoro-benzenesulfonyl)-pyrrolidine-2S-carboxylic acid [2,6-bis-(4-trifluoromethyl-phenyl)-pyrimidin-4-ylmethyl]-amide]
~0.158	O=C(NCc1cc(-c2ccc(C(F)(F)F)cc2)nc(N2CCN(c3ccccc3F)CC2)n1)[C@@H]1CCCN1S(=O)(=O)c1ccc(F)cc1 [Example 286, 1-(4-Fluoro-benzenesulfonyl)-pyrrolidine-2S-carboxylic acid [2-[4-(2-fluoro-phenyl)-piperazin-1-yl]-6-(4-trifluoromethyl-phenyl)-pyrimidin-4-ylmethyl]-amide]
3.72	COc1ccc(Nc2nc(CNC(=O)[C@@H]3CCCN3S(=O)(=O)c3ccc(F)cc3)cc(-c3ccc4c(c3)OCO4)n2)cc1 [Example 287, 1-(4-Fluoro-benzenesulfonyl)-pyrrolidine-2S-carboxylic acid [6-benzo[1,3]dioxol-5-yl-2-(4-methoxy-phenylamino)-pyrimidin-4-ylmethyl]-amide]
> 10	CN1CCN(C(=O)c2ccc(Nc3nc(CNC(=O)[C@@H]4CCCN4S(=O)(=O)c4ccc(F)cc4)cc(-c4ccc5c(c4)OCO5)n3)cc2)CC1 [Example 288, 1-(4-Fluoro-benzenesulfonyl)-pyrrolidine-2S-carboxylic acid {6-benzo[1,3]dioxol-5-yl-2-[4-(4-methyl-piperazine-1-carbonyl)-phenylamino]-pyrimidin-4-ylmethyl}-amide]
~3.47	CC(C)CN(CCO)c1nc(CNC(=O)[C@@H]2CCCN2S(=O)(=O)c2ccc(F)cc2)cc(-c2ccc(Br)cc2)n1 [Example 289, 1-(4-Fluoro-benzenesulfonyl)-pyrrolidine-2S-carboxylic acid {6-(4-bromo-phenyl)-2-[(2-hydroxy-ethyl)-isobutyl-amino]-pyrimidin-4-ylmethyl}-amide]
~0.708	O=C(NCc1cc(-c2ccc(Br)cc2)nc(NC2CC2)n1)[C@@H]1CCCN1S(=O)(=O)c1ccc(F)cc1 [Example 290, 1-(4-Fluoro-benzenesulfonyl)-pyrrolidine-2S-carboxylic acid [6-(4-bromo-phenyl)-2-cyclopropylamino-pyrimidin-4-ylmethyl]-amide]
~0.407	C#CCNc1nc(CNC(=O)[C@@H]2CCCN2S(=O)(=O)c2ccc(F)cc2)cc(-c2ccc(C(F)(F)F)cc2)n1 [Example 291]
> 10	O=C(NCc1cc(-c2ccc3c(c2)OCO3)nc(NCCc2ccc(Cl)cc2Cl)n1)[C@@H]1CCCN1S(=O)(=O)c1ccc(F)cc1 [Example 292, 1-(4-Fluoro-benzenesulfonyl)-pyrrolidine-2S-carboxylic acid {6-benzo[1,3]dioxol-5-yl-2-[2-(2,4-dichloro-phenyl)-ethylamino]-pyrimidin-4-ylmethyl}-amide]
2.69	O=C(NCc1cc(-c2ccc(Br)cc2)nc(NCCO)n1)[C@@H]1CCCN1S(=O)(=O)c1ccc(F)cc1 [Example 293, 1-(4-Fluoro-benzenesulfonyl)-pyrrolidine-2S-carboxylic acid [6-(4-bromo-phenyl)-2-(2-hydroxy-ethylamino)-pyrimidin-4-ylmethyl]-amide]
~1	O=C(NCc1cc(-c2ccc(C(F)(F)F)cc2)nc(NCc2cccnc2)n1)[C@@H]1CCCN1S(=O)(=O)c1ccc(F)cc1 [Example 294, 1-(4-Fluoro-benzenesulfonyl)-pyrrolidine-2S-carboxylic acid [2-[(pyridin-3-ylmethyl)-amino]-6-(4-trifluoromethyl-phenyl)-pyrimidin-4-ylmethyl]-amide]
1.74	O=C(NCc1cc(-c2ccc(Br)cc2)nc(NCCc2ccccn2)n1)[C@@H]1CCCN1S(=O)(=O)c1ccc(F)cc1 [Example 295, 1-(4-Fluoro-benzenesulfonyl)-pyrrolidine-2S-carboxylic acid [6-(4-bromo-phenyl)-2-(2-pyridin-2-yl-ethylamino)-pyrimidin-4-ylmethyl]-amide]
4.47	CC1CCN(c2nc(CNC(=O)[C@@H]3CCCN3S(=O)(=O)c3ccc(F)cc3)cc(-c3ccc(Br)cc3)n2)CC1 [Example 296, 1-(4-Fluoro-benzenesulfonyl)-pyrrolidine-2S-carboxylic acid [6-(4-bromo-phenyl)-2-(4-methyl-piperidin-1-yl)-pyrimidin-4-ylmethyl]-amide]

Source: US8614201B2 (Janssen Pharmaceutica NV, priority 2009, dated 2013)
